Entries after “also recorded” stand apart in the source; their conditions may differ.
How the values were obtained:
cellular cAMP = assay: GloSensor cAMP assay in FRT cells; assay type: cell-based, rat; conditions: 1c at 10 μM
Procedure: Intracellular cAMP activity was measured using a GloSensor luminescence assay (Promega Corp., Madison, Wisconson, USA). FRT null cells were stably transfected with the pGloSensor cAMP plasmid and plated onto white 96-well microplates and grown to confluence. Cells were washed three times with PBS and incubated with 5 μM CFTRact-J027 for 10 min in the absence and presence of 100 nM forskolin. cAMP was assayed according to the manufacturer's instructions.
Intracellular cAMP activity was measured using a GloSensor luminescence assay (Promega Corp., Madison, Wis., USA). FRT cells stably transfected with the pGloSensor cAMP plasmid (Promega Corp.) were cultured in white 96-well microplates (Corning Costar) overnight. Cells were then washed three times with PBS and incubated with 5 μM test compound for 10 min in the absence and presence of 100 nM forskolin.
cAMP assay. Intracellular cAMP activity was measured using a GloSensor luminescence assay (Promega Corp., Madison, Wisconson, USA). FRT null cells were stably transfected with the pGloSensor cAMP plasmid and plated onto white 96-well microplates and grown to confluence. […]
cAMP and cytotoxicity assays. Intracellular cAMP activity was measured using a GloSensor luminescence assay (Promega Corp., Madison, Wis., USA). […]

[1] = In vitro metabolic stability in mouse liver microsomes; assay type: in vitro ADME; conditions: mouse hepatic microsomes, NADPH
Procedure: (§1) CFTRact-J027 (5 μM) was incubated for specified times at 37° C. with mouse liver microsomes (1 mg protein/ml; Sigma-Aldrich) in potassium phosphate buffer (100 mM) containing 1 mM NADPH, as described. The mixture was then chilled on ice, and 0.5 ml of ice-cold ethyl acetate was added. Samples were centrifuged for 15 min at 3000 rpm, the supernatant evaporated to dryness, and the residue was dissolved in 100 μL mobile phase (acetonitrile:water, 3:1) for LC/MS and assayed as described above.
as §1, with “In vitro metabolic stability. CFTRact-J027” for “CFTRact-J027”
In vitro metabolic stability. Test compound (at 5 μM) was incubated for specified times at 37° C. with mouse liver microsomes (1 mg protein/ml; Sigma-Aldrich, St. Louis, Mo.) in potassium phosphate buffer containing 1 mM NADPH, as described. Following ethyl acetate extraction, non-metabolized parent compound was assayed by LC/MS.

cytoplasmic calcium = assay: Cytoplasmic calcium (Fluo-4) in FRT cells; assay type: cell-based, rat; conditions: 1c at 10 μM; ATP as calcium agonist
Procedure: FIGS. 23A-23D. In vitro characterization of compound 1c. FIG. 23A. Cellular cAMP in FRT cells in response to incubation for 10 min with […] 1c without or with 90 nM forskolin (fsk). Positive controls included fsk (100 nM and 20 pM) and fsk+IBMX (20 pM+100 pM) (mean±S.E.M., n=4). FIG. 23B. Cytoplasmic calcium measured by Fluo-4 fluorescence. FRT cells were pretreated for 5 min with 10 pM 1c (or control), with 100 pM ATP added as a calcium agonist as indicated. FIG. 23C. […] FIG. 23D.

[2] = system: calcium-activated chloride channels in HT-29 cells; assay: CaCC activity in HT-29 cells expressing YFP; assay type: cell-based; conditions: 1c at 10 μM
TMEM16A = TMEM16A activity in FRT cells expressing YFP and TMEM16A; assay type: cell-based; conditions: 1c at 10 μM
loperamide-treated mice = assay: Loperamide-induced mouse model of constipation; conditions: 1c orally 1 h prior to loperamide, 3-h stool
human wildtype CFTR [3] = molecular target: T1, human wildtype CFTR (Homo sapiens, UniProt P13569); assay: Short-circuit current (Isc) in FRT cells expressing human wild-type CFTR; conditions: read-out: EC50 for CFTR activation; FRT cells, wild-type CFTR, short-circuit current
human wildtype CFTR [4] = molecular target: T1, human wildtype CFTR; assay: Fluorescence plate reader assay of iodide influx in FRT cells co-expressing CFTR and YFP halide sensor

T1 sequence (P13569 whole entry): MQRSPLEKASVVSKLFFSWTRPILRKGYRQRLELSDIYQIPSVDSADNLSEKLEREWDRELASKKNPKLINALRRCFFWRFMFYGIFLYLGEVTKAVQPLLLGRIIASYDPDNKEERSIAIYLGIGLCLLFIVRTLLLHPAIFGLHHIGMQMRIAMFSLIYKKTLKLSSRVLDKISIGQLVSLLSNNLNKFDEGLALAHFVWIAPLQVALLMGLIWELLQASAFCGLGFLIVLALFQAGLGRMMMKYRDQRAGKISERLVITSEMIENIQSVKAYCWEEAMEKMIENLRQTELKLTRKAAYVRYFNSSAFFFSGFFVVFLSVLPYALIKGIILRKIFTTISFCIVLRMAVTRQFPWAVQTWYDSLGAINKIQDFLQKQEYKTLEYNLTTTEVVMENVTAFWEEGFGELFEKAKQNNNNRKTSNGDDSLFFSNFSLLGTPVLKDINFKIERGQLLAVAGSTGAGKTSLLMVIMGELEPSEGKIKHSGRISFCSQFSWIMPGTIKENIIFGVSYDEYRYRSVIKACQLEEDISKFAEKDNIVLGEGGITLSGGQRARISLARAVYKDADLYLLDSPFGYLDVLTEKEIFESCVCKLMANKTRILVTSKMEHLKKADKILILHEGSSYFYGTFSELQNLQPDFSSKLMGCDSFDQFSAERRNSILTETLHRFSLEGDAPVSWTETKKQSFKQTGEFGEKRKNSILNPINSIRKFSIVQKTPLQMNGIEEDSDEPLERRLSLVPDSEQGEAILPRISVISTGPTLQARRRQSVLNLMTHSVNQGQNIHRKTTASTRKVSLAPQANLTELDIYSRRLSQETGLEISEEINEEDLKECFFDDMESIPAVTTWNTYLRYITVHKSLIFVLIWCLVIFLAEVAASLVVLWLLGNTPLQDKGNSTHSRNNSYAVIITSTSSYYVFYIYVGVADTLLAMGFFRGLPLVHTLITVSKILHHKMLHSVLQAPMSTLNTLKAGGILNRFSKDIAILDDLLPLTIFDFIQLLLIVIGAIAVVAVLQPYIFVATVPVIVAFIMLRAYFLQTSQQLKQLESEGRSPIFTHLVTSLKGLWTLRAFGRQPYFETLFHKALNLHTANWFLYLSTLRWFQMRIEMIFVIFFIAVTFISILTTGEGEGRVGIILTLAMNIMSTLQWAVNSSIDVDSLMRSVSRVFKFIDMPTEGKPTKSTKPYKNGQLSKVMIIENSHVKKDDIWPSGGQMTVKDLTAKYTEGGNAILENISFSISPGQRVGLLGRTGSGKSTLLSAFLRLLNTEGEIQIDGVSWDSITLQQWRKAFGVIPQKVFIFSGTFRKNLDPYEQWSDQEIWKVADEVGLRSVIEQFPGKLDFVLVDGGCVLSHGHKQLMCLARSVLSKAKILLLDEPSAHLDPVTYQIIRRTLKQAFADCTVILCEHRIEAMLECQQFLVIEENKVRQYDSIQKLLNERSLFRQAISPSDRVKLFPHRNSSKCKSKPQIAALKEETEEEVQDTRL

SMILES: O=c1c(-c2cccc([N+](=O)[O-])c2)nc2ccccc2n1Cc1ccccc1 [Compound 1c, 1-Benzyl-3-(3-nitrophenyl)quinoxalin-2(1H)-one]
- effect on cellular cAMP level (cellular cAMP): did not affect the cellular cAMP level
- compound metabolized at 60 min [1]: < 40%
- cytoplasmic calcium (cytoplasmic calcium): nor did it elevate cytoplasmic calcium or inhibit the ATP-stimulated elevation in cytoplasmic calcium
- activation or inhibition of calcium-activated chloride channels in HT-29 cells [2]: no activation (iodide addition) or inhibition (iodide+ATP addition); also recorded: neither inhibited nor activated
- activation or inhibition of TMEM16A (TMEM16A): no activation (iodide addition) or inhibition (iodide+ATP addition); also recorded: neither inhibited nor activated
- stool weight, pellet number and hydration (loperamide-treated mice): fully normalized stool weight, pellet number and hydration
- EC50 (human wildtype CFTR [3]): 21 nM
- increased potency compared to 4 (human wildtype CFTR [4]; plate reader assay): ~10 fold
- EC50 (human wildtype CFTR [4]; read-out: EC50, variation in the 3-aryl ring, plate reader assay): 9 nM
- EC50 (human wildtype CFTR [4]; synthesized compounds, full dose-response study, 125 nM forskolin): 9 nM
